Strand notation (5' to 3'): a small letter for the sugar, then the base; units joined by * are phosphorothioate-linked, units joined directly phosphodiester-linked; [ ] holds rarer units or linkages, { } end groups; capitals alone tell only the bases. e = 2'-O-(2-methoxyethyl) (MOE); [5mC] = 5-methylcytosine; d = 2'-deoxy (DNA)

This data set relates to human PKK mRNA. As to the kind of experiment: Antisense inhibition of human PKK mRNA in HepaRG cells, 3,000 nM (Example 1). Type of data set: cell-based. Particulars: relative to untreated control cells. The protocol:
Antisense oligonucleotides were designed targeting a PKK nucleic acid and were tested for their effects on PKK mRNA in vitro. HepaRG™ cells, which are terminally differentiated hepatic cells derived from a human hepatic progenitor cell line and retain many characteristics of primary human hepatocytes (Lubberstedt M. et al., J. Pharmacol. Toxicol. Methods 2011 63: 59-68), were used in the screen.
The chimeric antisense oligonucleotides in the tables below were designed as 5-10-5 MOE gapmers. The gapmers are 20 nucleosides in length, wherein the central gap segment comprises of ten 2′-deoxynucleosides and is flanked by wing segments on the 5′ direction and the 3′ direction comprising five nucleosides each. Each nucleoside in the 5′ wing segment and each nucleoside in the 3′ wing segment has a 2′-O-methoxyethyl modification. The internucleoside linkages throughout each gapmer are phosphorothioate linkages. All cytosine residues throughout each gapmer are 5-methylcytosines. “Start site” indicates the 5′-most nucleoside to which the gapmer is targeted in the human gene sequence. “Stop site” indicates the 3′-most nucleoside to which the gapmer is targeted in the human gene sequence.
Cultured HepaRG™ cells at a density of 20,000 cells per well were transfected using electroporation with 3,000 nM antisense oligonucleotide. After a treatment period of approximately 24 hours, RNA was isolated from the cells and PKK mRNA levels were measured by quantitative real-time PCR. Human primer probe set RTS3454 (forward sequence […], designated herein as SEQ ID NO: 20; reverse sequence […], designated herein as SEQ ID NO: 21; probe sequence […], designated herein as SEQ ID NO: 22) was used to measure mRNA levels. PKK mRNA levels were adjusted according to total RNA content, as measured by RIBOGREEN®. The antisense oligonucleotides were tested in a series of experiments that had similar culture conditions. Results are presented as percent inhibition of PKK, relative to untreated control cells.

The mark [1] stands for this setting: Table 3, HepaRG cells, electroporation with 3,000 nM antisense oligonucleotide, approx. 24 hours, PKK mRNA by RT-PCR (RTS3454).
Setting [2] is: Table 4, HepaRG cells, electroporation with 3,000 nM antisense oligonucleotide, approx. 24 hours, PKK mRNA by RT-PCR (RTS3454).
The mark [3] stands for this setting: Table 1, PKK mRNA, HepaRG cells, 3,000 nM, electroporation, ~24 h.
Setting [4] is: Table 2, PKK mRNA, HepaRG cells, 3,000 nM, electroporation, ~24 h.

Regarding “531159 (antisense eA*eT*eT*eT*eG*dT*dT*dA*dA*dA*dA*dG*dT*dT*dG*e[5mC]*eT*eT*eA*eT) [compound 531159]”, under setting [1], the “% inhibition” value was determined as 0%.

Turning to “531217 (eG*eT*eG*eG*eA*dA*dT*dA*dA*dA*d[5mC]*d[5mC]*dA*dT*dA*eA*eT*e[5mC]*eT*eA; antisense) [compound 531217]”, the “% inhibition” value under setting [2] is given as 47%.

With “530998 (eA*eG*eT*eG*eA*dA*dA*dA*dA*d[5mC]*dT*dG*dA*d[5mC]*dA*eG*e[5mC]*eG*eA*eA; antisense) [compound 530998]”, under setting [3], the “% inhibition” value was 0%.

For “531044 (antisense eG*eG*e[5mC]*eA*eT*dT*d[5mC]*dT*dT*d[5mC]*dA*dT*dT*dT*dG*eT*eT*eA*e[5mC]*e[5mC]) [compound 531044]”, under setting [4], the “% inhibition” value worked out at 68%.

For the substance “531167 (antisense e[5mC]*eA*eA*eG*eA*dA*dA*d[5mC]*d[5mC]*dA*d[5mC]*d[5mC]*dA*dA*dA*eG*eG*eA*eA*eG) [compound 531167]”, the “% inhibition” value under setting [2] was 37%.

Consider “30929 (antisense eA*eA*e[5mC]*eG*eG*dT*d[5mC]*dT*dT*d[5mC]*dA*dA*dG*d[5mC]*dT*eG*eT*eT*e[5mC]*eT) [compound 30929]”, for which the “% inhibition” value under setting [3] is recorded as 59%.

Regarding “531100 (e[5mC]*e[5mC]*e[5mC]*e[5mC]*e[5mC]*dT*d[5mC]*d[5mC]*d[5mC]*dT*dT*d[5mC]*d[5mC]*d[5mC]*dT*eA*e[5mC]*eA*e[5mC]*eA; antisense) [compound 531100]”, the “% inhibition” value under setting [1] was 0%.

As for “530962 (antisense e[5mC]*e[5mC]*eT*eT*eT*dT*dT*dT*dG*dG*d[5mC]*dA*dT*dT*d[5mC]*eT*eT*e[5mC]*eA*eA) [compound 530962]”, under setting [3], the “% inhibition” value is reported as 64%.

As to “531112 (antisense eA*eT*eG*eT*eA*dT*dG*dA*dT*dT*d[5mC]*dT*dA*dA*dG*eA*eA*e[5mC]*eT*eT) [compound 531112]”, the “% inhibition” value under setting [1] amounted to 14%.

Turning to “530991 (eA*eT*eT*e[5mC]*eA*dA*dT*dT*d[5mC]*dT*dT*d[5mC]*dT*d[5mC]*d[5mC]*eT*e[5mC]*e[5mC]*eA*eA; antisense) [compound 530991]”, the “% inhibition” value under setting [3] came to 43%.

With “531085 (eA*eG*eG*e[5mC]*eA*d[5mC]*dA*dG*dA*dG*d[5mC]*d[5mC]*dA*dG*d[5mC]*eA*e[5mC]*e[5mC]*e[5mC]*eA; antisense) [compound 531085]”, under setting [1], the “% inhibition” value came to 9%.

In the case of “531220 (e[5mC]*eA*eA*eT*eA*d[5mC]*dA*dG*dG*dT*dA*dA*dA*dT*dT*eT*e[5mC]*eA*e[5mC]*eG; antisense) [compound 531220]”, the “% inhibition” value under setting [2] worked out at 56%.

On to “531130 (antisense eT*eT*e[5mC]*eT*eG*dT*dG*dT*d[5mC]*dA*dA*dT*dT*dA*dT*eA*eA*eA*e[5mC]*eA) [compound 531130]”, for which the “% inhibition” value under setting [1] is 0%.

Consider “531223 (eT*eG*eT*eA*e[5mC]*dT*d[5mC]*dA*d[5mC]*d[5mC]*dG*dG*dT*dA*d[5mC]*eT*e[5mC]*eT*eG*e[5mC]; antisense) [compound 531223]”, for which, under setting [2], the “% inhibition” value is 58%.

As for “531118 (antisense eG*e[5mC]*e[5mC]*eT*eA*dA*dA*dT*dG*dT*dA*dA*dG*dA*dG*e[5mC]*eT*eA*eA*eA) [compound 531118]”, the “% inhibition” value under setting [1] was found to be 26%.

For “531094 (eG*eA*eA*eT*eG*dT*d[5mC]*dA*dG*dG*d[5mC]*d[5mC]*dT*d[5mC]*dT*eG*eG*eG*e[5mC]*e[5mC]; antisense) [compound 531094]”, under setting [1], the “% inhibition” value came to 48%.

As to “531170 (antisense eG*e[5mC]*e[5mC]*eT*eG*dG*d[5mC]*d[5mC]*d[5mC]*d[5mC]*d[5mC]*dA*dA*dG*dA*e[5mC]*eT*e[5mC]*eT*eA) [compound 531170]”, under setting [2], the “% inhibition” value is reported as 54%.

For the substance “531086 (e[5mC]*e[5mC]*eT*eG*e[5mC]*d[5mC]*dT*d[5mC]*d[5mC]*dT*dG*dG*d[5mC]*dA*dG*e[5mC]*e[5mC]*eT*eT*e[5mC]; antisense) [compound 531086]”, the “% inhibition” value under setting [1] is recorded as 48%.

Consider “531149 (antisense eA*eG*eA*eG*eG*dT*dA*dA*dA*dG*d[5mC]*dA*dA*d[5mC]*dT*eT*eG*e[5mC]*e[5mC]*e[5mC]) [compound 531149]”, for which the “% inhibition” value under setting [1] was 45%.

Consider “531183 (antisense e[5mC]*eA*eT*eA*eA*dG*dA*dA*dT*dG*dT*dG*d[5mC]*dA*d[5mC]*eA*e[5mC]*eA*eA*eA) [compound 531183]”, for which the “% inhibition” value under setting [2] is 39%.

Regarding “531114 (antisense eA*eG*eA*eG*eT*d[5mC]*dA*dA*dG*dT*d[5mC]*d[5mC]*dA*d[5mC]*dA*eG*eA*e[5mC]*eA*eT) [compound 531114]”, under setting [1], the “% inhibition” value turned out to be 40%.

Turning to “530995 (eA*eG*eT*e[5mC]*eT*d[5mC]*dT*dT*dG*dG*d[5mC]*dA*dA*dA*d[5mC]*eA*eT*eT*e[5mC]*eA; antisense) [compound 530995]”, the “% inhibition” value under setting [3] turned out to be 49%.

Regarding “530949 (antisense eG*eG*eT*eG*eT*dA*d[5mC]*dA*dT*dG*dG*dA*dA*dG*d[5mC]*eT*eA*e[5mC]*eA*eT) [compound 530949]”, under setting [3], the “% inhibition” value amounted to 31%.

As for “531180 (antisense e[5mC]*e[5mC]*eT*e[5mC]*eT*dT*dA*dA*dG*dT*d[5mC]*dA*d[5mC]*d[5mC]*dA*eT*eA*eG*eA*e[5mC]) [compound 531180]”, under setting [2], the “% inhibition” value stood at 45%.

As for “530947 (antisense eG*eA*eA*eG*e[5mC]*dT*dA*d[5mC]*dA*dT*d[5mC]*d[5mC]*d[5mC]*d[5mC]*dA*e[5mC]*e[5mC]*eT*e[5mC]*eT) [compound 530947]”, under setting [3], the “% inhibition” value came to 27%.

As for “531039 (antisense eT*eA*e[5mC]*e[5mC]*e[5mC]*dA*dA*d[5mC]*dA*dG*dT*dT*dG*dG*dT*eA*eT*eA*eA*eA) [compound 531039]”, under setting [4], the “% inhibition” value stood at 36%.

Regarding “531013 (e[5mC]*e[5mC]*eA*eG*eG*dG*d[5mC]*d[5mC]*dA*d[5mC]*dT*d[5mC]*dT*d[5mC]*d[5mC]*e[5mC]*e[5mC]*eA*eA*eG; antisense) [compound 531013]”, the “% inhibition” value under setting [4] is 56%.

Turning to “531222 (eG*eG*e[5mC]*eA*eA*dG*d[5mC]*dT*dG*dT*dA*d[5mC]*dA*dA*dG*eA*eA*eA*eA*eA; antisense) [compound 531222]”, under setting [2], the “% inhibition” value came to 19%.

Regarding “531058 (antisense e[5mC]*e[5mC]*e[5mC]*eT*eT*dA*d[5mC]*dA*dA*dG*d[5mC]*dA*dT*d[5mC]*dT*eT*eT*eT*e[5mC]*e[5mC]) [compound 531058]”, under setting [4], the “% inhibition” value is given as 60%.

Take “531194 (e[5mC]*eT*e[5mC]*eA*e[5mC]*dA*dA*dT*dT*d[5mC]*dT*dG*dT*dA*dA*eG*eG*eG*eA*eA; antisense) [compound 531194]”: the “% inhibition” value under setting [2] was 64%.

As to “530958 (antisense eT*eT*eA*eA*eA*dA*dT*dT*dG*dA*d[5mC]*dT*d[5mC]*d[5mC]*dT*e[5mC]*eT*e[5mC]*eA*eT) [compound 530958]”, the “% inhibition” value under setting [3] is listed as 60%.

Take “531116 (antisense eT*eT*eG*eT*eT*dA*dA*dG*dG*dT*dT*dG*dT*dA*dG*eA*eG*eA*eG*eA) [compound 531116]”: the “% inhibition” value under setting [1] came out at 23%.

In the case of “531045 (antisense eT*eT*eT*e[5mC]*eT*dG*dG*d[5mC]*dA*dT*dT*d[5mC]*dT*dT*d[5mC]*eA*eT*eT*eT*eG) [compound 531045]”, the “% inhibition” value under setting [4] was determined as 37%.

On to “531000 (eA*eA*eG*eA*eA*dA*d[5mC]*dA*d[5mC]*dT*dT*dA*d[5mC]*dA*d[5mC]*eT*eT*e[5mC]*eT*e[5mC]; antisense) [compound 531000]”, for which the “% inhibition” value under setting [3] amounted to 1%.

As for “531035 (antisense eG*eT*eA*eG*eG*d[5mC]*dA*dT*dA*dT*dT*dG*dG*dT*dT*eT*eT*eT*eG*eG) [compound 531035]”, the “% inhibition” value under setting [4] is on record as 46%.

With “531154 (antisense eA*eT*eG*eA*eA*dG*dT*dA*dA*dG*dA*dT*dG*d[5mC]*dT*eT*eA*eA*eA*eA) [compound 531154]”, the “% inhibition” value under setting [1] turned out to be 16%.

Turning to “531228 (e[5mC]*eA*eG*eA*eG*dT*dA*dA*dA*d[5mC]*dT*d[5mC]*d[5mC]*d[5mC]*d[5mC]*eA*eT*e[5mC]*eT*e[5mC]; antisense) [compound 531228]”, the “% inhibition” value under setting [2] came out at 33%.

Turning to “531096 (e[5mC]*e[5mC]*e[5mC]*eA*eA*dT*dT*d[5mC]*dT*dT*dA*dG*dT*d[5mC]*d[5mC]*eT*eT*eT*eA*eA; antisense) [compound 531096]”, the “% inhibition” value under setting [1] was found to be 45%.

Regarding “531197 (eT*eA*e[5mC]*e[5mC]*eT*dT*dT*dT*d[5mC]*dT*d[5mC]*d[5mC]*dA*dT*dG*eT*e[5mC]*eA*eT*eT; antisense) [compound 531197]”, the “% inhibition” value under setting [2] came to 42%.

What is called % inhibition is the relative decrease from the control value, in per cent. A lower % inhibition goes with a weak effect.

These data come from US11840686B2, “Modulation of prekallikrein (PKK) expression” (Ionis Pharmaceuticals, Inc., priority 2013, dated 2023).
